The results in this text go back to US11091451B2, “SHMT inhibitors and uses thereof” (Raze Therapeutics, Inc., priority 2016, dated 2021).

The target of assay [1] is human cytosolic Serine Hydroxymethyl transferase 1 (SHMT1) (Homo sapiens (Human), UniProt P34896). Kind of assay: SHMT1 activity inhibition assay (serine production from glycine and CH2-THF, mass spectroscopy). The settings on record: 60 minutes at room temperature. It counts as biochemical. From the text: (§1) Full length human cytosolic Serine Hydroxymethyl transferase 1 (SHMT1, residues 1-483 in Uniport ID P34896) was expressed as an N-terminal His6 tagged protein and purified in E. coli using nickel capture followed by size-exclusion chromatography. Human mitochondrial SHMT2 (residues 30-504 in Uniprot ID P34897) with mitochondrial leader sequence deleted was expressed as an N-terminal His6 tagged protein and purified in E. coli using nickel capture followed by size-exclusion chromatography.
Chain of human cytosolic Serine Hydroxymethyl transferase 1 (SHMT1) (P34896 whole entry, the tested form may be a part): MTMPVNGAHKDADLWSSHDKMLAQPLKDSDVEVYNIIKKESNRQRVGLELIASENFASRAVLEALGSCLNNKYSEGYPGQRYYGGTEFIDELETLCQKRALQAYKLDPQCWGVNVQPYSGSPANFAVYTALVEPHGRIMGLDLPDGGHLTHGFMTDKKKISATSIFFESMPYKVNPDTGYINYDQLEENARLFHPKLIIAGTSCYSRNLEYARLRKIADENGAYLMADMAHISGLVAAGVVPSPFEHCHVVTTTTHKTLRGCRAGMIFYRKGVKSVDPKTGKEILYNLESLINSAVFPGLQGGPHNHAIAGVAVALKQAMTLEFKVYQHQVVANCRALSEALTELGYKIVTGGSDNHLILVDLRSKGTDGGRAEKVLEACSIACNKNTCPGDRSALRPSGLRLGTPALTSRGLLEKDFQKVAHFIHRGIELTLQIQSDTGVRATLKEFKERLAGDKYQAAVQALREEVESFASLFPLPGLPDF
(§2) Serine hydroxymethyltransferases catalyze the reversible hydroxymethylation of glycine to serine, with methylene tetrahydrofolate (CH2-THF) providing the additional carbon. SHMT1 and SHMT2 activity was determined by measuring serine production from glycine and CH2-THF using mass spectroscopy. Briefly, 15 ul of 0.5 mM glycine and 0.2 mM CH2-THF in 20 mM TEA, pH8.0, 0.2 mM NADPH were added to 384 well plate containing 0, 0.05 mM, 0.005 mM or 0.0005 mM of inhibitor. 15 ul of SHMT1 or 2 were added to initiate the reaction. The plate was incubated for 60 minutes at room temperature and the reaction was quenched by the addition of 30 ul of 10% trichloroacetic acid. Serine produced was analyzed using Rapidfire 360 and API4000^+ in the positive ion mode.

The target in assay [2] is Human mitochondrial SHMT2 (Homo sapiens (Human), UniProt P34897). In words: SHMT2 activity inhibition assay (serine production from glycine and CH2-THF, mass spectroscopy). Type of assay: biochemical. The following applies: 60 minutes at room temperature.
Chain of Human mitochondrial SHMT2 (P34897 30-504): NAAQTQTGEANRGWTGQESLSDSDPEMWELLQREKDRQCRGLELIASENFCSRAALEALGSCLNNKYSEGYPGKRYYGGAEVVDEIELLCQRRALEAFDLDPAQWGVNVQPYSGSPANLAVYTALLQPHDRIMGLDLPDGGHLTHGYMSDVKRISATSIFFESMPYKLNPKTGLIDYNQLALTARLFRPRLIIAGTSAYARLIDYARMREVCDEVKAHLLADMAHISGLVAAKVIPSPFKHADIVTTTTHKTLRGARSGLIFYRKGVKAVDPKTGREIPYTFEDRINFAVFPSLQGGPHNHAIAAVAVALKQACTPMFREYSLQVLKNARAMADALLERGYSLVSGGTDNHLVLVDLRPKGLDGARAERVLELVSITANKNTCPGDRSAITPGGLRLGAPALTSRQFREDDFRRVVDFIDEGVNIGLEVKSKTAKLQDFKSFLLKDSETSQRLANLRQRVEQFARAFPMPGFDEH
Text: as §1
as §2, with “15 ul of SHMT1 or 2 were added to initiate the reaction.” left out

Regarding `CC(C)(NC(=O)Cc1csc(-c2ccc(Cl)cc2-c2cccc(C#N)c2)n1)C(=O)O` [Compound I-1, 2-[[2-[2-[4-Chloro-2-(3-cyanophenyl)phenyl]thiazol-4-yl]acetyl]amino]-2-methyl-propanoic Acid], the half-inhibitory concentration (IC50) in assay [1] and in assay [2] was less than 1 µM each time.

Take `CC(C)(NC(=O)Cc1csc(-c2ccc3c(c2-c2ccccc2)OCCO3)n1)C(=O)O` [Compound I-2, 2-Methyl-2-[[2-[2-(5-phenyl-2,3-dihydro-1,4-benzodioxin-6-yl)thiazol-4-yl]acetyl]amino] propanoic Acid]: the IC50 was less than 1 µM in assay [1] and 1 to 10 µM in assay [2].

On to `Cc1ccc(-c2cc(Cl)ccc2-c2cccc(CC(=O)NC(C)(C)C(=O)O)c2)cc1` [Compound I-3, 2-[[2-[3-[4-Chloro-2-(p-tolyl)phenyl]phenyl]acetyl]amino]-2-methyl-propanoic Acid], for which the half-inhibitory concentration (IC50) in assay [1] and in assay [2] was less than 1 µM in each case.

Take `Cc1cccc(-c2cc(Cl)ccc2-c2nc(CC(=O)NC(C)(C)C(=O)O)cs2)c1` [Compound I-4]: the concentration for half-maximal inhibition (IC50) in assay [1] and in assay [2] was less than 1 µM throughout.

Regarding `CC(C)(NC(=O)Cc1csc(-c2ccc(Cl)cc2-c2ccccc2)n1)C(=O)O` [Compound I-5], the IC50 in assay [1] and in assay [2] was less than 1 µM throughout.

For the compound `CC(C)(NC(=O)Cc1csc(-c2ccc(Cl)cc2-c2cccc(Cl)c2)n1)C(=O)O` [Compound I-6], the concentration for half-maximal inhibition (IC50) in assay [1] and in assay [2] was less than 1 µM throughout.

With `CC(C)(NC(=O)Cc1csc(-c2ccc(Cl)cc2-c2cccc3c2COC3)n1)C(=O)O` [Compound I-7], the IC50 in assay [1] and in assay [2] was less than 1 µM each time.

As to `COc1cc(-c2nc(CC(=O)NC(C)(C)C(=O)O)cs2)c(-c2ccccc2)cc1Cl` [Compound I-8, 2-[[2-[2-(4-chloro-5-methoxy-2-phenyl-phenyl)thiazol-4-yl]acetyl]amino]-2-methyl-propanoic Acid], the IC50 in assay [1] and in assay [2] was less than 1 µM throughout.

Turning to `Cc1cccc(-c2cc(Cl)ccc2-c2nc(CC(=O)NC(C)(C)C(=O)O)cs2)c1C` [Compound I-9], the IC50 in assay [1] and in assay [2] was less than 1 µM in each case.

Consider `CC(C)(NC(=O)Cc1csc(-c2ccc(Cl)cc2CC2CCC2)n1)C(=O)O` [Compound I-10, 2-[[2-[2-[4-Chloro-2-(cyclobutylmethyl)phenyl]thiazol-4-yl]acetyl]amino]-2-methyl-propanoic Acid], for which the IC50 in assay [1] and in assay [2] was less than 1 µM each time.

Consider `CC(=O)N1CCC(c2cc(Cl)ccc2-c2nc(CC(=O)NC(C)(C)C(=O)O)cs2)CC1` [Compound I-11, 2-[[2-[2-[2-(1-Acetyl-4-piperidyl)-4-chloro-phenyl]thiazol-4-yl]acetyl]amino]-2-methyl-propanoic Acid], for which the IC50 in assay [1] was 1 to 10 µM; in assay [2], less than 1 µM.

With `CCc1cccc(-c2cc(Cl)ccc2-c2nc(CC(=O)NC(C)(C)C(=O)O)cs2)c1` [Compound I-12], the concentration for half-maximal inhibition (IC50) is 1 to 10 µM in assay [1] and less than 1 µM in assay [2].

`COc1ccc(-c2nc(CC(=O)NC(C)(C)C(=O)O)cs2)c(-c2ccccc2)c1` [Compound I-13, 2-[[2-[2-(4-Methoxy-2-phenyl-phenyl)thiazol-4-yl]acetyl]amino]-2-methyl-propanoic Acid]: in assay [1], the IC50 was in the range of 1 to 10 µM.

For the compound `CC(C)(NC(=O)Cc1csc(-c2ccc(Cl)cc2-c2cccc3c2CCC3)n1)C(=O)O` [Compound I-14], the half-maximal inhibitory concentration (IC50) is 1 to 10 µM in assay [1] and less than 1 µM in assay [2].

In the case of `CC(C)(NC(=O)Cc1cccc(-c2ccc(Cl)cc2-c2ccc(F)cc2)c1)C(=O)O` [Compound I-15, 2-[[2-[3-[4-Chloro-2-(4-fluorophenyl)phenyl]phenyl]acetyl]amino]-2-methyl-propanoic Acid], the values for the IC50 in assay [1] and in assay [2] were 1 to 10 µM and less than 1 µM, respectively.

Consider `CC(C)(NC(=O)Cc1csc(-c2ccc(Cl)cc2C2CCOCC2)n1)C(=O)O` [Compound I-16, 2-[[2-[2-(4-Chloro-2-tetrahydropyran-4-yl-phenyl)thiazol-4-yl]acetyl]amino]-2-methyl-propanoic Acid], for which the results for the half-inhibitory concentration (IC50) in assay [1] and in assay [2] were 1 to 10 µM and less than 1 µM, respectively.

For `CC(C)(NC(=O)Cc1cncc(-c2ccc(Cl)cc2-c2ccccc2)c1)C(=O)O` [Compound I-17, 2-[[2-[5-(4-Chloro-2-phenyl-phenyl)-3-pyridyl]acetyl]amino]-2-methyl-propanoic Acid], the IC50 in assay [1] is 1 to 10 µM; in assay [2], less than 1 µM.

On to `CC(C)(NC(=O)Cc1cccc(-c2ccc(Cl)cc2-c2ccccc2)n1)C(=O)O` [Compound I-18], for which the IC50 in assay [1] was 1 to 10 µM; in assay [2], less than 1 µM.

With `CC(C)(NC(=O)Cc1cccc(-c2ccc(Cl)cc2-c2cccc(C(N)=O)c2)c1)C(=O)O` [Compound I-19, 2-[[2-[3-[2-(3-Carbamoylphenyl)-4-chloro-phenyl]phenyl]acetyl]amino]-2-methyl-propanoic Acid], the concentration for half-maximal inhibition (IC50) was 1 to 10 µM in assay [1] and less than 1 µM in assay [2].

`CC(C)(NC(=O)Cc1ccnc(-c2ccc(Cl)cc2-c2ccccc2)c1)C(=O)O` [Compound I-20] showed a concentration for half-maximal inhibition (IC50) in assay [1] of 1 to 10 µM.

As for `CC(C)Cc1cc(Cl)ccc1-c1nc(CC(=O)NC(C)(C)C(=O)O)cs1` [Compound I-21], the half-inhibitory concentration (IC50) in assay [1] is 1 to 10 µM; in assay [2], less than 1 µM.

In the case of `CC(C)(NC(=O)Cc1cc(-c2ccc(Cl)cc2-c2ccccc2)ccn1)C(=O)O` [Compound I-23], the IC50 in assay [1] and in assay [2] was 1 to 10 µM in each case.

As for `CC(C)(NC(=O)Cc1csc(-c2ccc(Cl)cc2Cl)n1)C(=O)O` [Compound I-24], the IC50 was 1 to 10 µM in assay [1] and less than 1 µM in assay [2].

As to `CC(C)c1cc(Cl)ccc1-c1nc(CC(=O)NC(C)(C)C(=O)O)cs1` [Compound I-25], the IC50 is 1 to 10 µM in assay [1] and less than 1 µM in assay [2].

Regarding `CC(C)(NC(=O)Cc1csc(-c2ccc(Cl)cc2C2CC2)n1)C(=O)O` [Compound I-26], the concentration for half-maximal inhibition (IC50) is 10 to 100 µM in assay [1] and 1 to 10 µM in assay [2].

For the compound `CCc1cc(Cl)ccc1-c1nc(CC(=O)NC(C)(C)C(=O)O)cs1` [Compound I-27], the IC50 in assay [1] lay in the range of 10 to 100 µM; in assay [2], 1 to 10 µM.

Take `O=C(Cc1csc(-c2ccc(Cl)cc2Cl)n1)NC1(C(=O)O)CCC1` [Compound I-28]: the figures for the IC50 in assay [1] and in assay [2] were 10 to 100 µM and 1 to 10 µM, respectively.

Turning to `CC(C)(NC(=O)Cc1ccnc(-c2ccc(Cl)cc2-c2ccccc2)n1)C(=O)O` [Compound I-29], the values for the IC50 in assay [1] and in assay [2] were 10 to 100 µM and 1 to 10 µM, respectively.

For `CC(C)(NC(=O)Cc1cccc(-c2ccc(Cl)cc2)c1)C(=O)O` [Compound I-30, 2-[2-[3-(4-chlorophenyl)phenyl]acetamido]-2-methylpropanoic Acid], the IC50 in assay [1] lay within 10 to 100 µM; in assay [2] it was 1 to 10 µM.

`CC(C)(NC(=O)Cc1csc(-c2ccc(Cl)cc2C2CCNCC2)n1)C(=O)O` [Compound I-31, 2-[[2-[2-[4-Chloro-2-(4-piperidyl)phenyl]thiazol-4-yl]acetyl]amino]-2-methyl-propanoic Acid]: the IC50 in assay [1] lay in the range of 10 to 100 µM; in assay [2], 1 to 10 µM.

With `CC[C@@H](C)[C@H](NC(=O)Cc1csc(-c2cccc(Cl)c2)n1)C(=O)O` [Compound I-32], the IC50 in assay [1] and in assay [2] was 10 to 100 µM each time.

Consider `Cc1sc(-c2ccc(Cl)cc2Cl)nc1CC(=O)NC(C)(C)C(=O)O` [Compound I-33], for which the values for the IC50 in assay [1] and in assay [2] were 10 to 100 µM and 1 to 10 µM, respectively.

Consider `O=C(O)CNC(=O)Cc1csc(-c2ccc(Cl)cc2-c2ccccc2)n1` [Compound I-34, 2-[2-[2-(4-chloro-2-phenylphenyl)-1,3-thiazol-4-yl]acetamido]acetic Acid], for which the IC50 in assay [1] and in assay [2] was 10 to 100 µM in each case.

For `C[C@H](NC(=O)Cc1csc(-c2ccc(Cl)cc2Cl)n1)C(=O)O` [Compound I-35], the IC50 in assay [1] and in assay [2] was 10 to 100 µM in each case.

As to `O=C(O)CNC(=O)Cc1csc(-c2ccc(Cl)c(-c3ccccc3)c2)n1` [Compound I-36], the half-inhibitory concentration (IC50) in assay [1] and in assay [2] was 10 to 100 µM throughout.

For the compound `O=C(Cc1csc(-c2ccc3c(c2)OCCO3)n1)NC1(C(=O)O)CCC1` [Compound I-37], the figures for the half-maximal inhibitory concentration (IC50) in assay [1] and in assay [2] were 10 to 100 µM and 1 to 10 µM, respectively.

Take `CC(C(=O)NCC(=O)O)c1csc(-c2ccc(Cl)cc2Cl)n1` (stereo not shown) [Compound I-38]: the half-inhibitory concentration (IC50) in assay [1] and in assay [2] was 10 to 100 µM each time.

Consider `C[C@H](NC(=O)Cc1csc(-c2cccc(Br)c2)n1)C(=O)O` [Compound I-39], for which the IC50 in assay [1] and in assay [2] was 10 to 100 µM each time.

`O=C(O)CNC(=O)Cc1csc(-c2ccc(Cl)c3ccccc23)n1` [Compound I-40, 2-[2-[2-(4-chloronaphthalen-1-yl)-1,3-thiazol-4-yl]acetamido]acetic Acid]: the half-inhibitory concentration (IC50) in assay [1] and in assay [2] was 10 to 100 µM each time.
